Laboratory results from publication PMC4805609, “Estrogenic Effects of Several BPA Analogs in the Developing Zebrafish Brain” (Frontiers in Neuroscience, 2016).

Columns and labels:
zfERβ2 = zfERβ2 (Danio rerio, UniProt Q7ZU32); test: cyp19a1b-luciferase reporter gene assay in U251-MG glial cells transfected with zfERβ2; type: cell-based, zebrafish; settings: 10–6 M, 24 h, U251-MG cells with ERβ2, vs DMSO
Method: (§1) The medium was also supplemented with 20 U/mL penicillin, 20 μg/mL streptomycin, and 50 ng/mL amphotericin B (Gibco). For transfections, cells were plated in 24-well plates at a density of 25,000 cells/ml in the same medium, except the fetal calf serum was charcoal-treated and used at a concentration of 2.5%. Cells were transfected with 25 ng/well either the vector expression containing or not the zfERα, zfERβ1, zfERβ2 coding region and cytomegalovirus [CMV]−β-Galactosidase, and 150 ng/well of the cyp19a1b-Luciferase reporter plasmid, using JetPEI as a transfection reagent (Polyplus Transfection, Illkirch, France). […] Luciferase activity was measured 24 h later (Luciferase assay system, Promega, Madison, WI, USA). β-Galactosidase activity was used to normalize transfection efficiency. Chemicals were tested in at least 3 independent experiments and each experiment was performed in triplicate.

cyp19a1b transcripts = test: cyp19a1b in situ hybridization on 7-dpf brain sections; type: in vivo, zebrafish; settings: 1 μM, 7-dpf larvae; for distribution of cyp19a1b transcripts in the whole brain: transverse sections
Method: (§2) For subsequent RT-qPCR and in situ hybridization analysis with wild type zebrafish, groups of 80 embryos (for each condition) were placed after 1 day post-fertilization (1-dpf) in a large glass flask containing 100 ml of embryonic medium (Mouriec et al., [2009b]). […] The embryos were held in the exposure flasks until 7-dpf larva stage. […] Embryos were maintained in the exposure dishes until 4-dpf larva stage. During the treatment period, 100% of the exposure medium was renewed every 24 h (for both wild type and transgenic zebrafish).
Larvae used for in situ hybridization experiments originated from the same exposition groups than RT-qPCR experiments. After exposure to the different conditions, 10 wild type 7-dpf larvae (for each treatment) were fixed overnight at 4°C in 4% paraformaldehyde, before embedding in parrafin. Serial thin transverse sections ([…]) were placed on cryofrost slides and subjected to in situ hybridization experiments. Sense and antisense digoxigenin-labeled riboprobes for the cyp19a1b gene were transcribed using the Digoxigenin RNA labeling kit in accordance with the manufacturer's instructions (Roche, Mannheim, Germany) and as previously described (Menuet et al., [2005]). The brain sections were processed for in situ hybridization using stringent conditions as previously published (D'Amico et al., [2011], [2013]). After NBT/BCIP revelation, sections were counterstained with DAPI, and mounted in a drop of vectashield (Vector Laboratories). All sections were photographed with an Olympus PROVIS AX70 microscope with a digital camera (Olympus SP71), or a Nikon multizoom AZ100 macroscope with a DS-Ri1 color camera.

zfERα = target: T1, zfERα (Danio rerio, UniProt P57717); test: cyp19a1b-luciferase reporter gene assay in U251-MG glial cells transfected with zfERα; type: cell-based, zebrafish; set-up: containing the coding regions of each zebrafish estrogen receptor cDNA; expressed in transfected cells; host or cells: human U251-MG glial cells (ER-negative); settings: 10–6 M, 24 h, U251-MG cells with ERα, vs DMSO
T1 sequence (P57717 1-569): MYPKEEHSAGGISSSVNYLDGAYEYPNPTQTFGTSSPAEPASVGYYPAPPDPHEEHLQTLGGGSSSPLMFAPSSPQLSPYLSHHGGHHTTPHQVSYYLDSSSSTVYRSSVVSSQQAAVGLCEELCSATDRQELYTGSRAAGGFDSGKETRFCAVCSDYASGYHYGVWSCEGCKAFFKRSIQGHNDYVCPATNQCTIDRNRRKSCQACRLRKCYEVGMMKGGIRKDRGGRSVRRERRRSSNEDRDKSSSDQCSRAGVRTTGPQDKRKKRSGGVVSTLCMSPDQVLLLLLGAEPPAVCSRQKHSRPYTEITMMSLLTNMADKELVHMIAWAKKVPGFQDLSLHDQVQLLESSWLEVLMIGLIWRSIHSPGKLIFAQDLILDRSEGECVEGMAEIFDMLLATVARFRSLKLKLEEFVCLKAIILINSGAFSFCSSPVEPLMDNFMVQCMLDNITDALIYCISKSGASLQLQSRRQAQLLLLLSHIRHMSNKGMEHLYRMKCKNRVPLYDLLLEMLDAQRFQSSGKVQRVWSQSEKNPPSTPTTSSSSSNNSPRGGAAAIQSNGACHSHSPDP
Method: as §1

cyp19a1b gene = test: RT-qPCR of cyp19a1b transcripts in wild type 7-dpf larva brains; settings: for fold induction at 1 µM: Danio rerio, read-out: cyp19a1b gene expression, fold induction relative to DMSO, 1 μM, 7-dpf larvae brains, six independent exposures, Figure 1B
Method: as §2
Tissue was sonicated (10 s, 3 times) in 250 μL Trizol Reagent (Invitrogen) and RNA extractions were carried out according to the manufacturer's protocol. Reverse transcription was carried out by incubating 2μg total RNA with 1μg of random primer oligonucleotides, 2.5ṁM dNTPs, and 50 U MMLV-RT (Promega) in the appropriate buffer for 10 min at 65°C and 60 min at 37°C. Quantitative Polymerase chain reaction (qPCR) experiments were performed in an iCycler thermocycler coupled to the MyiQ detector (Bio-Rad. Hercules, CA, USA) using iQ SYBR-Green Supermix (Bio-Rad) according to the manufacturer's protocol. The following primers were used: ef1 (fw) 5′-[…]-3′; ef1 (rev) 5′-[…]-3′; cyp19a1b (AroB; fw) 5′-[…] For each condition, the RT-PCR experiment was run in triplicates. Expression levels of ef1 mRNA were used to normalize cyp19a1b expression levels. Melting curve and PCR efficiency analyses were performed to confirm correct amplification. For quantification of PCR results, the threshold cycle (Ct) was determined for each reaction. Ct values for each gene of interest were normalized with the housekeeping gene ef1, using the ΔΔCt method. Normalized values were used to calculate the degree of induction or inhibition expressed as a “fold difference” compared to normalized control values.

cyp19a1b promoter = test: EASZY assay: GFP fluorescence in brain of live cyp19a1b-GFP transgenic 4-dpf larvae; type: in vivo, zebrafish; settings: 4-dpf cyp19a1b-GFP larvae, exposure 2 hpf to 4 dpf; for fold induction at 1 µM: Danio rerio, read-out: GFP fluorescence, fold induction above DMSO control
Method: Quantification of fluorescence in transgenic cyp19a1b-GFP zebrafish larva brain was performed according to Brion et al. ([2012]). In this assay, estrogenic activity is detected in living 4 days-old larvae (treated or not with an estrogen mimic compound) from the observation of the reporter gene fluorescence in the radial glial cells. […] All photographs were taken using the same parameters: only the head was photographed under a X10 objective, with a 134 ms exposure time and maximal intensity. Photographs were analyzed using the Axiovision Imaging software and fluorescence quantification was performed using the ImageJ software (http://rsbweb.nih.gov/ij/). For each picture, the integrated density was measured, i.e., the sum of the gray-values of all the pixels within the region of interest. A gray-value of 290 was defined as background value. For each micrograph the fluorescence fold induction of fluorescence was calculated comparing the integrated pixel density with the average fluorescence induction obtained in the control group.

zfERβ2, sequence (Q7ZU32 1-553): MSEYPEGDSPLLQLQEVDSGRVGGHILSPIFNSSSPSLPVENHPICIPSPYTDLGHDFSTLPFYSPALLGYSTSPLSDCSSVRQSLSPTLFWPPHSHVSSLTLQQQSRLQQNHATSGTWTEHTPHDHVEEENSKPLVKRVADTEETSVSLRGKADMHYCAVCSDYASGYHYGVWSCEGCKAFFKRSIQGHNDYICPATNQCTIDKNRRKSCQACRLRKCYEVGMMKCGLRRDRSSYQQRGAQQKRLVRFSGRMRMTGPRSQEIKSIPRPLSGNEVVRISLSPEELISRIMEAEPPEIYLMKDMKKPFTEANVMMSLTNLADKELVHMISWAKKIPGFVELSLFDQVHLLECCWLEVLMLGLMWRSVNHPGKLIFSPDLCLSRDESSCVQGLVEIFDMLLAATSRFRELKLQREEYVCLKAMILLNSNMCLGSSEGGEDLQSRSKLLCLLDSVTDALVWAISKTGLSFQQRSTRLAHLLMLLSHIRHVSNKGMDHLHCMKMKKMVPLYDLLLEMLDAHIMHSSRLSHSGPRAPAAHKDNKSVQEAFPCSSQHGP

Row | SMILES | cyp19a1b-luciferase reporter gene induction (zfERβ2) | cyp19a1b transcripts in the nucleus recessus posterioris (nrp), caudal hypothalamus (cyp19a1b transcripts) | distribution of cyp19a1b transcripts in the whole brain (cyp19a1b transcripts) | cyp19a1b-luciferase reporter gene induction (zfERα) | cyp19a1b gene expression, fold induction relative to DMSO (cyp19a1b gene; 1 μM, 7-dpf larvae brains, six independent exposures, Figure 1B) | GFP fluorescence, fold induction above DMSO control (cyp19a1b promoter; 1 μM) | fold induction at 1 µM (cyp19a1b gene) | fold induction at 1 µM (cyp19a1b promoter)
1 | CC(c1ccccc1)(c1ccc(O)cc1)c1ccc(O)cc1 [BPAP, 4,4′-(1-phenylethylidene)bisphenol] | did not stimulate | increase in cyp19a1b transcripts in the nrp region (Figure 5H) albeit to a lower levels | induces expression of cyp19a1b transcripts in only a few (xeno) estrogen-sensitive cyp19a1b expression sites | did not stimulate | no effect | did not affect GFP fluorescence signal | – | –
2 | Oc1ccc(C(c2ccc(O)cc2)(C(F)(F)F)C(F)(F)F)cc1 [BPAF, 2,2-bis(4-hydroxylphenyl)hexafluoropropane] | – | – | identical to EE2- and BPA-treated animals | significant stimulation | – | – | ~43 | 14
3 | O=S(=O)(c1ccc(O)cc1)c1ccc(O)cc1 [BPS, bis-(4-hydroxyphenyl)sulfone] | did not stimulate | – | identical to EE2- and BPA-treated animals | did not stimulate | – | – | ~41 | 6
